Data as given in US8778886B2, “Methods of making and using a cell penetrating peptide for enhanced delivery of nucleic acids, proteins, drugs, and adenovirus to tissues and cells, and compositions and kits” (Tufts University, priority 2007, dated 2014).
Residues, ends and D or L forms follow the SMILES beside them. No end group written: not given here. *: point of attachment. FITC = O=C1OC2(c3ccc(O)cc3Oc3cc(O)ccc32)c2ccc(NC(=S)*)cc21

How the values were obtained:
E. coli = assay: Microbicidal activity, colony count after plating; assay type: cell-based; details: 2 hours at 37° C., plating on LB agar
Procedure: (§1) Lissamine conjugated POD (L-POD) and either heparan sulfate or chondroitan sulfate were incubated together at each of molar ratios of 1:3.33, 1:6.67, and 1:8 in water for 30 minutes at room temperature. The complex was diluted in DMEM+2% FBS and added to 0.2×]06 HER cells for 5 minutes at 37° C. Following incubation, cells were trypsinized and suspended in PBS for FACS analysis as described above. To measure microbicidal activity of C-POD, XL-1 Blue cells (Stratagene, La Jolla, Calif.) were grown to mid logarithmic phase (OD600=0.600) and washed twice in a solution of 10 mM Tris, pH 7.4 and 5 mM Glucose. The cells were resuspended in 10 mL of the same solution and […] of the suspension was incubated with C-POD in a final volume of 50 μL. The peptide/bacteria cell solution was rocked for 2 hours at 37° C. The peptide-treated bacteria was diluted 1:4500 with LB broth, plated on agar, and grown overnight at 37° C. The following day, the bacterial colonies on each plate were counted to quantify peptide-related reduction in growth.
Since endophthalmitis, an infection within the eye, is regularly a complicating factor in drug delivery to ocular tissues [Ho J et al. 2007 Int Opthalmol Clin 47: 199-208], C-POD was examined for potential microbicidal activities. E. coli cells grown to mid-log phase were incubated with either H20 only or C-POD suspended in H20 at concentrations ranging from 0.03 μM to 60 μM, and cell number was determined by plating samples on LB agar. […] Greater concentrations of C-POD completely eliminated bacterial growth.

[1] = tested on: cornea, sclera, optic nerve; assay: Topical application of L-POD to whole mouse eye in vivo; set-up: species or system C57BL6/6J mice; details: for staining of external ocular tissues: topical, 10 nmol, 45 min
Procedure: (§2) The use of animals in this work was in accordance with the ARVO Statement for the Use of Animals in Ophthalmic and Vision Research. C57BL/6J mice were purchased from Jackson Laboratories, bred and maintained in a 12-hour light-dark cycle and cared for in accordance with federal, state and local regulations. For each Example herein at least 4 mice (8 eyes) were investigated, yielding roughly similar results. Mice were anesthetized by […] injection of xylazine (10 mg/ml)/ketamine (1 mg/ml). Subretinal or intravitreal injections were performed with a 32 G needle attached to a 5 μl glass syringe (Hamilton) by a trans scleral trans choroidal approach to deliver 0.25 nmole of L-POD per eye. For topical delivery to cornea, male C57BL6/6J mice at 6 weeks of age were anesthetized by intraperitoneal injection of ketamine/xylazine and 10 nmoles of either L-POD or lissamine only were dropped on the cornea and incubated for 45 minutes or 24 hours. Upon completion of the treatment, the animal was sacrificed by CO2 inhalation followed by cervical dislocation and the eyes harvested and washed three times in PBS. Fluorescent and bright field images were taken of each eye using a Nikon C-FMC microscope prior to fixation. Eyes were fixed overnight at 4° C. in 4% paraformaldehyde and embedded in Optimal Cutting Temperature Compound and 14 μm sections were collected using a Microm 550 cryostat.
To assess penetration of the cornea and sclera with L-POD, whole mouse eye was incubated in vivo with 10 nmol L-POD for 45 min followed by harvesting of ocular tissues.

neural retina = assay: Subretinal / intravitreal delivery of L-POD and QDPOD to retina in vivo; set-up: species or system C57BL/6J mice; details: 2 hours
Procedure: as §2, with “cryostat. […]” for “cryostat.”

HER cells [2] = assay: Inhibition of L-POD uptake by proteoglycans; assay type: cell-based, human
Procedure: as §1
To determine whether L-POD uses cell surface proteoglycans for binding and cell entry, L-POD was pre incubated with different amounts of either of the proteoglycans chondroitin sulfate or heparan sulfate, prior to addition to HER cells. Based on data from preliminary studies, ratios of L-POD:proteoglycan of 1:3.33, 1:6.67 and 1:8 were selected.
In contrast, the uptake of a TRITC-conjugated peptide containing an integrin-binding RGD motif was not affected by pre-incubation with either proteoglycan (FIG. 3 panel A).

[3] = tested on: Human embryonic retinal (HER) 911 cells; assay: L-POD uptake by HER cells (microscopy, lissamine-positive cells by FACS); assay type: cell-based
Procedure: (§3) HER cells were seeded on Lab Tek-II chamber slides and grown to about 70% confluence. Cells were washed twice with PBS and incubated with […] L-POD for 0, 5, 15, 30, 45, and 60 minutes or 1 nmol Lissamine only for 60 minutes. Cells were fixed for 15 minutes in formalin at room temperature. Cells for live imaging were grown on 24 well plates and incubated with […] of L-POD. Following incubation, cells were washed three times with PBS, incubated in phenol red-free DMEM supplemented with 2% FBS. Cells were visualized by light and fluorescent microscopy using either an Olympus IX51 (live cells) or an Olympus BX51 (fixed cells) with DIC, RFP, and GFP filters. Images were obtained using a Retiga 2000R FAST camera and QCapture Pro 5.0 (QImaging, BC, Canada). To measure L-POD uptake in the presence of trypsin, 0.2×10^6 HER cells were incubated with 2.0 nmole L-POD in media for 15 minutes at 37° C. followed by incubation in 2.5 mg/ml trypsin for 12 minutes at 37° C. For analysis of uptake at 4° C., cells were cooled to 4° C. for 45 minutes prior to the addition of peptide and cold (4° C.) reagents were used for peptide administration. Following incubation with peptide, cells were washed twice with PBS and spun and resuspended in PBS for FACS analysis. For measurement of membrane permeabilization, HER cells were incubated with 2.0 nmole FITC-HBP for 30 minutes at 37° C., washed twice, isolated, and suspended in PBS with 1 μM PI. The number of PI-positive cells was analyzed by FACS. FACS analysis was performed using a FACSCalibur (Becton Dickinson). Examples were performed in triplicate and 10,000 events per sample were counted. Results were analyzed using CellQuest Pro software (Becton Dickinson).
Human embryonic retinal (HER) 911 cells [Fallaux F J et al. 1996 Hum. Gene Ther. 7: 215-222] incubated with […] (8 μM) lissamine-conjugated POD (L-POD), followed by formalin fixation, became […] to 558 nm excitation (emission measured at 583 nm) within 1 min and appeared normal in bright field (FIG. 1 panel A). Within 5 min, L-POD was seen within the cytoplasm with both a diffuse cytoplasmic and slightly punctate pattern (Figure panel A).
To determine whether L-POD was internalized or was non-specifically associated with the plasma membrane, HER cells incubated with 2 nmoles (8 μM) L-POD for 15 min were treated with trypsin at 37° C. prior to counting of lissamine-positive cells by FACS. […] Sensitivity of POD peptide to trypsin-mediated digestion was confirmed by incubation of […] of C-POD with trypsin prior to loading on an acrylamide gel (inset FIG. 1 panel C). Whereas 92.23±0.65% of HER cells were lissamine-positive when incubated with L-POD at 37° C., only 48.74±2.32% of cells were lissamine-positive when incubated with L-POD at 4° C. (FIG. 1 panel D).

HER cells [4] = assay: Membrane permeabilization, propidium iodide uptake after F-POD; assay type: cell-based, human; details: FACS, F-POD 0.2 to 2.0 μM (average), Triton-X100 1%
Procedure: as §3, with “Following incubation with peptide, cells were washed twice with PBS and spun and resuspended in PBS for FACS analysis. For measurement of membrane permeabilization, HER cells were incubated with 2.0 nmole FITC-HBP for 30 minutes at 37° C., washed twice, isolated, and suspended in PBS with 1 μM PI.” left out, “FACS analysis was performed using a FACSCalibur (Becton Dickinson).” left out, “Dickinson). […]” for “Dickinson).”

In the case of GGG(ARKKAAKA)4 [POD], the “concentration giving significant inhibition of bacterial growth” value (E. coli) was 0.3 µM.

“L-POD: N terminal lissamine conjugated GGG(ARKKAAKA)4 (SEQ ID NO: 1) (lissamine-GGGARKKAAKAARKKAAKAARKKAAKAARKKAAKA)” was tested, and the “time to reach the optic nerve” value ([1]; administered topically) was at most 45 min, the “staining of external ocular tissues” value [1] was “bound strongly to the cornea, sclera and unexpectedly, also the optic nerve” and the “transduction of neural retina” value (neural retina; intravitreal) was “approximately 85%”. For the same compound, the “transduction of neural retina” value (neural retina; subretinal) was “approximately 40%”, the “uptake of L-POD (lissamine-positive cells)” value (HER cells [2]; chondroitin sulfate, 1:6.67) was 59.43±1.55% and the “uptake of L-POD (lissamine-positive cells)” value (HER cells [2]; chondroitin sulfate, 1:8) was 34.38±3.13%. The “uptake of L-POD (lissamine-positive cells)” value (HER cells [2]; chondroitin sulfate, L-POD:proteoglycan 1:3.33) was 71.24±1.77%, the “uptake of L-POD (lissamine-positive cells)” value (HER cells [2]; heparan sulfate, 1:3.33) was 78.60±0.35% and the “uptake of L-POD (lissamine-positive cells)” value (HER cells [2]; heparan sulfate, 1:6.67) was 57.78±2.83%. The “uptake of L-POD (lissamine-positive cells)” value (HER cells [2]; heparan sulfate, 1:8) was 44.37±2.17%, the lissamine-positive cells (HER cells [2]; without pre incubation with any proteoglycan) was 90.07±0.64% and the lissamine-positive cells ([3]; 2 nmoles (8 μM) L-POD 15 min, with incubation with trypsin) was 90.10±1.89%. The lissamine-positive cells ([3]; 2 nmoles (8 μM) L-POD 15 min, without incubation with trypsin) was 92.23±0.65%, the “time until L-POD was seen within the cytoplasm” value ([3]; 2 nmoles (8 μM) L-POD, formalin fixation) was at most 5 min and the “uptake of L-POD in the presence of inhibitors of endocytosis” value ([3]; chlorpromazine, genistein, filipin) was “no significant reduction”. The lissamine-positive cells ([3]; incubated with L-POD at 4° C.) was 48.74±2.32% and the lissamine-positive cells ([3]; incubated with L-POD at 37° C.) was 92.23±0.65%.

Compound C[C@H](NC(=O)[C@H](CCCCN)NC(=O)[C@H](C)NC(=O)[C@H](C)NC(=O)[C@H](CCCCN)NC(=O)[C@H](CCCCN)NC(=O)[C@H](CCCNC(=N)N)NC(=O)[C@H](C)NC(=O)[C@H](C)NC(=O)[C@H](CCCCN)NC(=O)[C@H](C)NC(=O)[C@H](C)NC(=O)[C@H](CCCCN)NC(=O)[C@H](CCCCN)NC(=O)[C@H](CCCNC(=N)N)NC(=O)[C@H](C)NC(=O)[C@H](C)NC(=O)[C@H](CCCCN)NC(=O)[C@H](C)NC(=O)[C@H](C)NC(=O)[C@H](CCCCN)NC(=O)[C@H](CCCCN)NC(=O)[C@H](CCCNC(=N)N)NC(=O)[C@H](C)NC(=O)[C@H](C)NC(=O)[C@H](CCCCN)NC(=O)[C@H](C)NC(=O)[C@H](C)NC(=O)[C@H](CCCCN)NC(=O)[C@H](CCCCN)NC(=O)[C@H](CCCNC(=N)N)NC(=O)[C@H](C)NC(=O)CNC(=O)CNC(=O)CNC(=S)Nc1ccc2c(c1)C(=O)OC21c2ccc(O)cc2Oc2cc(O)ccc21)C(=O)O [F-POD] ({FITC}-GGGARKKAAKAARKKAAKAARKKAAKAARKKAAKA-OH) has a PI-positive cells (HER cells [4]) of 3.98±0.70%.

With lissamine [reference compound] the “staining of external ocular tissues” value [1] was “weakly stained the cornea and sclera and did not stain the optic nerve” and the “uptake by HER cells (microscopy)” value ([3]; lissamine only, fixed cells) was “no evidence of uptake”.

Work on Triton-X100 [reference compound] yielded a PI-positive cells (HER cells [4]) of 91.44±9.66%.
